This note sets out measurements from PMC12155096 (International Journal of Molecular Sciences, 2025).

Assay in all cases: biochemical; call rule not given here
Assay [1] has as its target Photinus pyralis (firefly) luciferase (Photinus pyralis, UniProt P08659). The class given is biochemical. The arrangement: Luciferase Efficacy: unit not given here.
For assay [2], the target named is T1, human CYP1A2 (Homo sapiens, UniProt P05177).
T1 sequence (P05177 1-516): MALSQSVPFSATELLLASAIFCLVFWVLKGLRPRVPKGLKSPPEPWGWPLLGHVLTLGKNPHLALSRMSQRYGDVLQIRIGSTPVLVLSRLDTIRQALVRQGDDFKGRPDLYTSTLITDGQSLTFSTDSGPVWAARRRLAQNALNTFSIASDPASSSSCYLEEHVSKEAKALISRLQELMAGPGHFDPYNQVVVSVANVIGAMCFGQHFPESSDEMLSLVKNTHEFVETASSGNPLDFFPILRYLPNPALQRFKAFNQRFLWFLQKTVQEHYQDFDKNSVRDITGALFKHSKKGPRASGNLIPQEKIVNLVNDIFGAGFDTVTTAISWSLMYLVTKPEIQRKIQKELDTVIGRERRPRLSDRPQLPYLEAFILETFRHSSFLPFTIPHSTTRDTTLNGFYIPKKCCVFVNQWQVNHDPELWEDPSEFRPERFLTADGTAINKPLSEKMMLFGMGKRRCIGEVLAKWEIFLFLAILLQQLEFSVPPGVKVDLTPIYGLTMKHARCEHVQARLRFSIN

The target in assay [3] is human CYP2C9 (Homo sapiens, UniProt P11712).
Sequence of human CYP2C9 (P11712 whole entry): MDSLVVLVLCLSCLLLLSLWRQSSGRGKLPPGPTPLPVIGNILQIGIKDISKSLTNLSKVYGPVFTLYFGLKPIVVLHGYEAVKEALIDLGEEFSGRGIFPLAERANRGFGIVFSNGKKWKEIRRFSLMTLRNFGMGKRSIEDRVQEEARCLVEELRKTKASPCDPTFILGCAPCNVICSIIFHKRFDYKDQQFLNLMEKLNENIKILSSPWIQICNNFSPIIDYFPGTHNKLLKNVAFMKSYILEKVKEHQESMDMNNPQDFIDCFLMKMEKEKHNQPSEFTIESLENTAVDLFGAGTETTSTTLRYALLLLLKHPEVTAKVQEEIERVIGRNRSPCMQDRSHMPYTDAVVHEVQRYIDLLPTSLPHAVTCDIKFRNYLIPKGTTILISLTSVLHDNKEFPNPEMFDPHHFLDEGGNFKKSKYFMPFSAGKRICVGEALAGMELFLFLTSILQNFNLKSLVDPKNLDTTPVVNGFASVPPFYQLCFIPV
Assay [4] concerns the target human CYP2C19 (Homo sapiens, UniProt P33261).
Assay [5] deals with human CYP2D6 (Homo sapiens, UniProt P10635).
Sequence of human CYP2D6 (P10635 whole entry): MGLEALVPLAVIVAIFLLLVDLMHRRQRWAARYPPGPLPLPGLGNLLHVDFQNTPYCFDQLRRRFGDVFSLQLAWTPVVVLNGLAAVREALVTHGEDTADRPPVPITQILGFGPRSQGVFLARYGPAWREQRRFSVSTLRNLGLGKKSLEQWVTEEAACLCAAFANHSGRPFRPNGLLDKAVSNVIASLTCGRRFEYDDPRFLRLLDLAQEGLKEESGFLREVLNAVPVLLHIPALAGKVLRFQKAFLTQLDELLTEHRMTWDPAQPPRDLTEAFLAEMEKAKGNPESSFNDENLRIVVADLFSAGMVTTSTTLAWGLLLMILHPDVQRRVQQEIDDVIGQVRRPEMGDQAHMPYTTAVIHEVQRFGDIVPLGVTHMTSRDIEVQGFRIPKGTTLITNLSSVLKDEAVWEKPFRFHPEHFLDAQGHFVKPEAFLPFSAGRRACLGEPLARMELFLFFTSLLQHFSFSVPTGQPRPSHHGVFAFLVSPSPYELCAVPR
The target in assay [6] is CYP3A4 (Homo sapiens, UniProt P08684).
Sequence of CYP3A4 (P08684 whole entry): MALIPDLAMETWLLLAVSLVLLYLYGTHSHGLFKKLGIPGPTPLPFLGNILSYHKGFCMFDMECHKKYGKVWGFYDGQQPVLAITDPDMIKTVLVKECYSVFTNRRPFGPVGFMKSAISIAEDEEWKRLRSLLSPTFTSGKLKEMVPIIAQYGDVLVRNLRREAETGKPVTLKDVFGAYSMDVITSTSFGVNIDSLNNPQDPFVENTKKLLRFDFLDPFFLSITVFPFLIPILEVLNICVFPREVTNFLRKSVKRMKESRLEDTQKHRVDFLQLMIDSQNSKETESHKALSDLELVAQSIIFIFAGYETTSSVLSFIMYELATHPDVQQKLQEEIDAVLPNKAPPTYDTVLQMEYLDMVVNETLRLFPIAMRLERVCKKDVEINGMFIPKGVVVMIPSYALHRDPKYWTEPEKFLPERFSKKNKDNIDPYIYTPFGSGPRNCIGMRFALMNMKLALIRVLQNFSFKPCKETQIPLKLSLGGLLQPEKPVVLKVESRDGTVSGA
Setting [7] is: CYP1A2 IC50 (half-maximal inhibitory concentration).
The mark [8] stands for this setting: CYP2C19 IC50 (half-maximal inhibitory concentration).
Where [9] appears, read: CYP3A4 IC50 (half-maximal inhibitory concentration).
Where [10] appears, read: CYP2C9 IC50 (half-maximal inhibitory concentration).
Setting [11] is: CYP2D6 IC50 (half-maximal inhibitory concentration).

Molecules are shown by their SMILES. Read-outs that look alike come from different tables or passages of the source.

Sequence of human CYP2C19 (P33261 whole entry): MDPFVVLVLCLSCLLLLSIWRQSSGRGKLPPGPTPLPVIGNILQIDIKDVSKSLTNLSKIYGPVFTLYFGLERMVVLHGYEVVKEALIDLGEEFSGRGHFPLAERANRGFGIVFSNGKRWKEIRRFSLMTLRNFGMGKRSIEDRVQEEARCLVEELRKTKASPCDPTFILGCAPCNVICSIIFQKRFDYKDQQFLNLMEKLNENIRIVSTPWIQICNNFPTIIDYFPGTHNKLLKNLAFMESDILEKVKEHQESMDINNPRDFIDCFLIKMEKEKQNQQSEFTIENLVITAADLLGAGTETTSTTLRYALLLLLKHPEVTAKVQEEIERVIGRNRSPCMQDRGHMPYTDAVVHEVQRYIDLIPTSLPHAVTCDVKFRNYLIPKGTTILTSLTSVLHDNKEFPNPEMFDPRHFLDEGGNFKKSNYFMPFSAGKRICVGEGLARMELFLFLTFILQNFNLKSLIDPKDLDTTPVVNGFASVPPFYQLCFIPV
Sequence of Photinus pyralis (firefly) luciferase (P08659 whole entry): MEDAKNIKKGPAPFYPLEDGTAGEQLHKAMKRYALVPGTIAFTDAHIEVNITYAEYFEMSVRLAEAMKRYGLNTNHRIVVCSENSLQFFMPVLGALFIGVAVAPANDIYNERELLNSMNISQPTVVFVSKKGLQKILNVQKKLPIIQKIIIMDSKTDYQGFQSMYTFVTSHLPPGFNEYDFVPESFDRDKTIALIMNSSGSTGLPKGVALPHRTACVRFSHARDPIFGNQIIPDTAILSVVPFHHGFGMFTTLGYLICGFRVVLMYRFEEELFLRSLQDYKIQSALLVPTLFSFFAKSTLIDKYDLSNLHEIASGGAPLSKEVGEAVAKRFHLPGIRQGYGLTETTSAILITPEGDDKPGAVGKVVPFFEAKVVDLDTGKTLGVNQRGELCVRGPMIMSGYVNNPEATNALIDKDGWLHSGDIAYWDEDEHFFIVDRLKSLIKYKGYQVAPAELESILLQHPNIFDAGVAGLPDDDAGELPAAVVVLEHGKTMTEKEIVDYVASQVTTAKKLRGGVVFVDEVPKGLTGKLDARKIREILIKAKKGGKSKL

Take `CCOC(=O)C(SP(=S)(OC)OC)c1ccccc1` (stereo not shown) [Phenthoate]: in assay [1], the “Luciferase IC50” value is reported as “Inactive”. Also, the IC50 (as a rule, the concentration needed to halve the response being measured) in assay [2] (CYP1A2 IC50) was determined as 3.79 µM; in assay [3] it was 1280 nM; in assay [4] (CYP2C19 IC50) it was 300 nM; in assay [5] it was 49.3 µM; in assay [6] (CYP3A4 IC50) it was 3330 nM.

With `CCN(CC)c1nc(C)cc(OP(=S)(OC)OC)n1` [Pirimiphos-methyl], the “Luciferase IC50 (half-maximal inhibitory concentration)” value in assay [1] was “Inactive”. For the same molecule, the IC50 came to 1.49 µM in assay [2] (setting [7]); 23600 nM in assay [3]; 190 nM in assay [4] (setting [8]); 53.3 µM in assay [5]; 2220 nM in assay [6] (setting [9]).

Regarding `CCCN(CCOc1c(Cl)cc(Cl)cc1Cl)C(=O)n1ccnc1` [Prochloraz], in assay [1], the “Luciferase IC50 (half-maximal inhibitory concentration)” value is on record as “Inactive”. Besides, the IC50 in assay [2] (setting [7]) came out at 0.22 µM; in assay [3] (setting [10]), 810 nM; in assay [4] (setting [8]), 50 nM; in assay [5] (setting [11]) it was 0.53 µM; in assay [6] (setting [9]) it was 70 nM.

`C#CCOS(=O)OC1CCCCC1Oc1ccc(C(C)(C)C)cc1` (stereo not shown) [Propargite]: in assay [1], the “Luciferase IC50 (half-maximal inhibitory concentration)” value was “Inactive”. In addition, the 50% inhibitory concentration (IC50) in assay [2] (setting [7]) stood at 7.75 µM; in assay [3] (setting [10]), 490 nM; in assay [4] (setting [8]), 780 nM; in assay [5] (setting [11]) it was 16 µM; in assay [6] (setting [9]), 1870 nM.

Regarding `OC(Cc1ccccc1Cl)(Cn1nc[nH]c1=S)C1(Cl)CC1` (stereo not shown) [Prothioconazole], the half-maximal inhibitory concentration (IC50) turned out to be 65.8 µM in assay [1]; 41.9 µM in assay [2] (setting [7]); 930 nM in assay [3] (setting [10]); 2550 nM in assay [4] (setting [8]); 47.5 µM in assay [5] (setting [11]); 8000 nM in assay [6] (setting [9]). Also, the “Luciferase Efficacy” value in assay [1] is on record as 65.83 ± 4.46 (-26 ± 4) %.

In the case of `CCOP(=S)(OCC)Oc1cnc2ccccc2n1` [Quinalphos], the “Luciferase IC50” value in assay [1] is “Inactive”. Also, the IC50 in assay [2] (CYP1A2 IC50) turned out to be 2.25 µM; in assay [3], 910 nM; in assay [4] (CYP2C19 IC50), 470 nM; in assay [5], 38.5 µM; in assay [6] (CYP3A4 IC50), 4570 nM.

Turning to `CC1(C)C2(Cl)C(Cl)C(Cl)C(Cl)(C(Cl)Cl)C1(Cl)C2Cl` (stereo not shown) [Strobane], the “Luciferase IC50” value in assay [1] is recorded as “Inactive”. In addition, the IC50 in assay [2] (CYP1A2 IC50) was determined as 41.2 µM; in assay [3] (CYP2C9 IC50) it was 9890 nM; in assay [4] (CYP2C19 IC50), 1590 nM; in assay [5] (CYP2D6 IC50), 44 µM; in assay [6] (CYP3A4 IC50) it was 820 nM.

Turning to `CCOP(=S)(Oc1cnc(C(C)(C)C)nc1)OC(C)C` (stereo not shown) [Tebupirimfos], in assay [1], the “Luciferase IC50” value is listed as “Inactive”. The IC50 was found to be 24 µM in assay [2] (CYP1A2 IC50); 1790 nM in assay [3]; 620 nM in assay [4] (CYP2C19 IC50); 34.3 µM in assay [5]; 1500 nM in assay [6] (CYP3A4 IC50).

Take `COC(=O)c1c(C(F)F)nc(C(F)(F)F)c(C2=NCCS2)c1CC(C)C` [Thiazopyr]: the “Luciferase IC50 (half-maximal inhibitory concentration)” value in assay [1] is reported as “Inactive”. Moreover, the IC50 in assay [2] (setting [7]) was determined as 0.4 µM; in assay [3] (setting [10]), 34300 nM; in assay [4] (setting [8]), 5430 nM; in assay [5] (setting [11]), 54.3 µM; in assay [6] (setting [9]), 1930 nM.

In the case of `CC(C)(C)C(=O)C(Oc1ccc(Cl)cc1)n1cncn1` (stereo not shown) [Triadimefon], the “Luciferase IC50 (half-maximal inhibitory concentration)” value in assay [1] is listed as “Inactive”. The half-inhibitory concentration (IC50) in assay [2] (setting [7]) is 37 µM; in assay [3] (setting [10]), 11300 nM; in assay [4] (setting [8]), 1920 nM; in assay [5] (setting [11]), 51.6 µM; in assay [6] (setting [9]), 450 nM.

As to `C[C@H]1CCCC(=O)CCC/C=C/c2cc(O)cc(O)c2C(=O)O1` [Zearalenone], the “Luciferase IC50 (half-maximal inhibitory concentration)” value in assay [1] is “Inactive”. Besides, the IC50 came out at 25.3 µM in assay [2] (setting [7]); 5740 nM in assay [3]; 16600 nM in assay [4] (setting [8]); 46.5 µM in assay [5]; 120 nM in assay [6] (setting [9]).
